Data published in publication PMC2365101, “Anti-Inflammatory Activity of (Polyphenolic)-Sulfonates and Their Sodium Salts in Rodents” (Metal-Based Drugs, 1998).

Legend:
[1] = biological target: T1, IL-1 high affinity receptor on L929 fibroblasts (Mus musculus, UniProt P13504); assay: 125I-IL-1 high affinity binding to L929 fibroblasts; conditions: for 125I-IL-1 binding, Percent of Control: at 8 Hours (table title), N=6; for reduction of IL-1 high affinity receptor binding: 5 to 50 μM, 5 hr
T1 construct: host or cells: L929 mouse fibroblasts
T1 sequence (P13504 20-576): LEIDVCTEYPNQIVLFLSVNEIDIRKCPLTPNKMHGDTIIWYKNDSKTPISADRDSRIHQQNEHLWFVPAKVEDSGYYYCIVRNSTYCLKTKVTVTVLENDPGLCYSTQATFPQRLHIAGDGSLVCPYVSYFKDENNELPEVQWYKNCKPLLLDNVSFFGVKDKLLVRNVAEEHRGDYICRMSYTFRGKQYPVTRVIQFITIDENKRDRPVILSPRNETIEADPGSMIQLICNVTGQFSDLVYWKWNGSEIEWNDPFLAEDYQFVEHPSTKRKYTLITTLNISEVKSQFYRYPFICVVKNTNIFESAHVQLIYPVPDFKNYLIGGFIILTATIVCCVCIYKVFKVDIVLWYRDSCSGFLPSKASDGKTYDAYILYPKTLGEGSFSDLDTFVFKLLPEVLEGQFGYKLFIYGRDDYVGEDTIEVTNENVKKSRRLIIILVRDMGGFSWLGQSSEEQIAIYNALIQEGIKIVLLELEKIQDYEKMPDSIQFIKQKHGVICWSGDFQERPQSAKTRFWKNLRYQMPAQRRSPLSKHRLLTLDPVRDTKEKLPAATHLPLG
Source text: Few reports in the literature indicate interaction at these receptor sites other than by peptides or antibodies. […] Blocking these receptors is desirable because the entire inflammation cascade of events is triggered by the early release of TNFa and IL-1. […] Radioisotopes were obtained from New England Nuclear [Dupont, Boston, MA] and substrates and co- factors were obtained from Sigma Chemical Co. [St. Louis, MO]. […] Cell lines were obtained from American Type Culture Collection [Rockville, MD]. In Vivo Tests Anti-inflammatory screen in mice: Male CF male mice weighing 28-32g obtained from Jackson Lab. [Bar Harbor, […]] were used to screen agents at 8 or 16 mg/kg intraperitoneal [I.P.] x 2 administered 3 hr and 30 min prior to administering the irritant, according to Winter's protocol. Evaluation of the induced edema was made by injecting 2% carrageenan in 0.9% saline into the plantar region of the foot. The opposite foot injected with 0.9% isotonic saline was used as a base line. […] Salmonella abortus equi [Lot # 69F4003] […] Drugs from 2 to 16 mg/kg, I.P. were administered 2 hr prior and 2 hr post-injection of the LPS and then subsequently for every 24 hr for the length ofthe animals' lives. Deaths were recorded every 12 hr and continued for 96 hr. […] In vitro TNFa andIL-1 Measurements and Cellular Regulation IC-21 mouse macrophages were maintained in RPMI-1640 + 10% FCS + P/S. After the cells had grown to confluency, E. coli LPS at 10 Ixg/ml was added to the medium. Agents were incubated at 12.5 to 100 µM final concentration for 18 hr. The medium (100 btl) was collected for TNFCt determinations. Interleukin-1 [IL-1] release was determined using P388D1 cells which were maintained in RPMI-1640 + 10% FCS + P/S. The L929 bioassay was used to quantitate the TNF and the IL-1 levels. The L929 mouse fibroblasts were grown in DMEM + 10% FCS + P/S to confluency in 96 well plates and incubated with 100 tl ofmedium from IC-20 or P388D cells after 18 hr. The cells were stained with 0.2% crystal violet in 20% MeOH and read at 580 nm using a Molecular Devices scanner (SOFT-max program). […] The cells were washed repeatedly with isotonic saline, pH.7.2 and aliquots counted. Prostaglandin cylcooxygenase activity Mouse J774AI macrophages maintained in Dulbecco's modified Eagle's medium + 15% FCS + P/S. Cells (5 x 106) were incubated with agents (5 to 100 ].tM final concentration) and 3H-arachidonic acid (100 Ci/mol) for 60 min at 37C in a CO2 incubator. The reaction was terminated with 2N HCI, the mixture extracted 2 X with ether, and the organic layer evaporated.

[2] = biological target: human leukocyte elastase (RPMI 1788); assay: Elastase activity in human leukocytes RPMI 1788; type: biochemical
[3] = biological target: IC-21 macrophage elastase; assay: Elastase activity in IC-21 macrophages; type: biochemical, mouse; conditions: 120 min

SMILES	125I-IL-1 binding, Percent of Control ([1]; 5 μM)	125I-IL-1 binding, Percent of Control ([1]; 12.5 μM)	125I-IL-1 binding, Percent of Control ([1]; 25 μM)	125I-IL-1 binding, Percent of Control ([1]; 50 μM)	reduction of IL-1 high affinity receptor binding [1]	IC50 ([2]; 60 min)	IC50 ([2]; 120 min)	IC50 [3]
COc1c2cc(S(=O)(=O)[O-])cc1Cc1cc(S(=O)(=O)[O-])cc(c1OC)Cc1cc(S(=O)(=O)[O-])cc(c1OC)Cc1cc(S(=O)(=O)[O-])cc(c1OC)Cc1cc(S(=O)(=O)[O-])cc(c1OC)Cc1cc(S(=O)(=O)[O-])cc(c1OC)C2.[Na+].[Na+].[Na+].[Na+].[Na+].[Na+] [Compound 6]	3+2% of Control	3 + 2% of Control	3 + 2% of Control	3 + 1% of Control	greater than 90%	275 µM	162 µM	–
CC(=O)Oc1c2cc(S(=O)(=O)[O-])cc1Cc1cc(S(=O)(=O)[O-])cc(c1OC(C)=O)Cc1cc(S(=O)(=O)[O-])cc(c1OC(C)=O)Cc1cc(S(=O)(=O)[O-])cc(c1OC(C)=O)Cc1cc(S(=O)(=O)[O-])cc(c1OC(C)=O)Cc1cc(S(=O)(=O)[O-])cc(c1OC(C)=O)Cc1cc(S(=O)(=O)[O-])cc(c1OC(C)=O)Cc1cc(S(=O)(=O)[O-])cc(c1OC(C)=O)C2.[Na+].[Na+].[Na+].[Na+].[Na+].[Na+].[Na+].[Na+] [Compound 8]	9+ 1% of Control	10 + 5% of Control	9 + 5% of Control	7 + 4% of Control	greater than 90%	–	–	111 µM
